Test results: patent publication US20240246942A1, “KINASE INHIBITORS FOR THE TREATMENT OF NEURODEGENERATIVE DISEASES” (priority 2020, published 2024)

Key:
Assay in all cases: biochemical
[1] = biological target: T1, panel of 374 wild-type kinases (Homo sapiens, UniProt P15735); conditions: read-out: % Enzyme Activity (relative to DMSO controls), kinase PHKg2
T1 construct: purchased Reaction Biology Corporation
T1 sequence (P15735 1-406): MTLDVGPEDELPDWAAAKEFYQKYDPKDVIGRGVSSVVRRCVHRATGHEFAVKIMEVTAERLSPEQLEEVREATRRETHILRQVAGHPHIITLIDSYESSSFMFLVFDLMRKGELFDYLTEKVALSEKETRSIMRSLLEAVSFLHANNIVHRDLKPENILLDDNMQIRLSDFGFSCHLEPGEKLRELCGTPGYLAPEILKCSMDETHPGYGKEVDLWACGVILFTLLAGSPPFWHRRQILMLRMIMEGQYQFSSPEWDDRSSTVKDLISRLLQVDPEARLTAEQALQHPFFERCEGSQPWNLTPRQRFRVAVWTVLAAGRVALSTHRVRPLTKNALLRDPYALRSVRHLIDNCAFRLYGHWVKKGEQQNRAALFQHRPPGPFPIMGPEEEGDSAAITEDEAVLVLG

[2] = biological target: T2, panel of 374 wild-type kinases (Homo sapiens, UniProt Q9HC98); conditions: read-out: % Enzyme Activity (relative to DMSO controls), NEK6
T2 construct: purchased Reaction Biology Corporation
T2 sequence (Q9HC98 whole entry): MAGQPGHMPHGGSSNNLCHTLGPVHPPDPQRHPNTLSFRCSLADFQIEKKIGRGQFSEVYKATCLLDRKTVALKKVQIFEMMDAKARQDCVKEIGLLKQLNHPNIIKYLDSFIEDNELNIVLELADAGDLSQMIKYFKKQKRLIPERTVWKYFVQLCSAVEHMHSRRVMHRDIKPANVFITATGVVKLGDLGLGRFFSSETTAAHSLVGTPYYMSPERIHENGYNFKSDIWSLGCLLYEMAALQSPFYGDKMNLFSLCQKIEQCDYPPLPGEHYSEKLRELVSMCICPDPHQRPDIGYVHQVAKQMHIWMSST

[3] = biological target: T3, panel of 374 wild-type kinases (Homo sapiens, UniProt P49761); conditions: read-out: % Enzyme Activity (relative to DMSO controls), CLK3
T3 construct: purchased Reaction Biology Corporation
T3 sequence (P49761 whole entry): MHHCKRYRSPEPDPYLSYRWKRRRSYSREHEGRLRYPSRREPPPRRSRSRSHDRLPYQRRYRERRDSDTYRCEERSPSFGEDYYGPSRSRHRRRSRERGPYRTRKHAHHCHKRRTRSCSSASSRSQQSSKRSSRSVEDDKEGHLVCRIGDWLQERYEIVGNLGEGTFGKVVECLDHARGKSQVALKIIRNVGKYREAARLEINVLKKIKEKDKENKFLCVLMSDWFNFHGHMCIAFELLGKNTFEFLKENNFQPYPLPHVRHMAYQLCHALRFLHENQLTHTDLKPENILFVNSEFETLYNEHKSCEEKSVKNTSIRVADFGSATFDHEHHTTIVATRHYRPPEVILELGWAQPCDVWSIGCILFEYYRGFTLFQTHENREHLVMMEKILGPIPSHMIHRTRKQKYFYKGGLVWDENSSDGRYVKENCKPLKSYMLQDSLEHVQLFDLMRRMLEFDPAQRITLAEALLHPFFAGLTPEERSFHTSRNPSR

[4] = biological target: T4, panel of 374 wild-type kinases (Homo sapiens, UniProt O00444); conditions: read-out: % Enzyme Activity (relative to DMSO controls), kinase PLK4/SAK
T4 construct: purchased Reaction Biology Corporation
T4 sequence (O00444 1-970): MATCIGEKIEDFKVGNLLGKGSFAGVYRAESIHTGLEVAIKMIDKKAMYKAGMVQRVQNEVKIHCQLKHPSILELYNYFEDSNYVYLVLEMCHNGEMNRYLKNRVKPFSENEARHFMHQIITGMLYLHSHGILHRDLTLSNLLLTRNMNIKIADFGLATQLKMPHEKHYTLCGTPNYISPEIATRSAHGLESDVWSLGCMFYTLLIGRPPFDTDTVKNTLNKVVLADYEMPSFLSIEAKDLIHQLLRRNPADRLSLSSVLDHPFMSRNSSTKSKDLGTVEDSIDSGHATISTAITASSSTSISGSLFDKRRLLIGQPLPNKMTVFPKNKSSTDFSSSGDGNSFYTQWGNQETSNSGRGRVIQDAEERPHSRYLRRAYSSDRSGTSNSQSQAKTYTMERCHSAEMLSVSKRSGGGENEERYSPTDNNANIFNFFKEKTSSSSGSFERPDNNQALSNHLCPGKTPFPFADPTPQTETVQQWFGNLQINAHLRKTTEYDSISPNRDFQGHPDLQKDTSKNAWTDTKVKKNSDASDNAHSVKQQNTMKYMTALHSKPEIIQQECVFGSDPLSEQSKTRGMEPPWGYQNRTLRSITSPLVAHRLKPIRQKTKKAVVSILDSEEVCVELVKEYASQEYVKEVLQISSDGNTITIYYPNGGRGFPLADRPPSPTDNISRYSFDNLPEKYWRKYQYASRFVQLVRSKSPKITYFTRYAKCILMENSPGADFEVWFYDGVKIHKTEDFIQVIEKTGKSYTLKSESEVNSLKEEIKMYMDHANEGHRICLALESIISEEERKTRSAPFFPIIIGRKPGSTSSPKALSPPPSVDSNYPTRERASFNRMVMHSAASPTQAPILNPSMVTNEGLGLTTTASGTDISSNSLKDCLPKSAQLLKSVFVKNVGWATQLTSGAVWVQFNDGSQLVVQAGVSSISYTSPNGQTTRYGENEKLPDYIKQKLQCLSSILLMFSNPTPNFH

[5] = biological target: T5, panel of 374 wild-type kinases (Homo sapiens, UniProt Q9NY57); conditions: read-out: % Enzyme Activity (relative to DMSO controls), kinase STK32B/YANK2
T5 construct: purchased Reaction Biology Corporation
T5 sequence (Q9NY57 whole entry): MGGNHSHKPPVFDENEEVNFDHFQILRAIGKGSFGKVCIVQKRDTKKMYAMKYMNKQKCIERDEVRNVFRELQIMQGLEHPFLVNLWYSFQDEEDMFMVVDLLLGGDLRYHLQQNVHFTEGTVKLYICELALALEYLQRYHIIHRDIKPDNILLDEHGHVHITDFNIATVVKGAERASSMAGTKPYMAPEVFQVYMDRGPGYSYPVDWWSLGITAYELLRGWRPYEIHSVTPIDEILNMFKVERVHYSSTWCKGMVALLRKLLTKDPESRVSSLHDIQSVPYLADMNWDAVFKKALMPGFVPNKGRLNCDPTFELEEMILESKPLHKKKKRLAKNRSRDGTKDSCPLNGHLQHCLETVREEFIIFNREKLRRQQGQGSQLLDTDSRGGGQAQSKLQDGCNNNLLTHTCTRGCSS

Row | Structure (SMILES) | remaining activity at 5 µM [1] [%] | remaining activity at 5 µM [2] [%] | remaining activity at 5 µM [3] [%] | remaining activity at 5 µM [4] [%] | remaining activity at 5 µM [5] [%] | remaining activity at 10 µM ([1]; 10 uM) [%] | remaining activity at 10 µM ([2]; 10 uM) [%] | remaining activity at 10 µM ([3]; 10 uM) [%] | remaining activity at 10 µM ([4]; 10 uM) [%] | remaining activity at 10 µM ([5]; 10 uM) [%]
1 | O=C(Nc1cnn(-c2csc(C(=O)NC3COC3)c2)c1)Nc1ccccc1Cl [Compound 17, 4-(4-(3-(2-chlorophenyl)ureido)-1H-pyrazol-1-yl)-N-(oxetan-3-yl)thiophene-2-carboxamide] | 101 | 103 | 120 | 88.2 | 122 |  |  |  |  | 
2 | Cc1sc(C(=O)NC2COC2)cc1-n1cc(NC(=O)Nc2c(F)cccc2Cl)cn1 [Compound 27, 4-(4-(3-(2-chloro-6-fluorophenyl)ureido)-1H-pyrazol-1-yl)-5-methyl-N-(oxetan-3-yl)thiophene-2-carboxamide] |  |  |  |  |  | 88.5 | 93.3 | 99.6 | 100 | 89.8
3 | O=C(Nc1cnn(-c2csc(C(=O)NC3COC3)c2)c1)Nc1c(F)cccc1Cl [Compound 25, 4-(4-(3-(2-chloro-6-fluorophenyl)ureido)-1H-pyrazol-1-yl)-N-(oxetan-3-yl)thiophene-2-carboxamide] | 131 | 87.2 | 93.5 | 84.3 | 103 |  |  |  |  | 
